One test has as its system Staphylococcus aureus. Kind of test: Antibacterial activity against Staphylococcus aureus by agar-diffusion test. It is filed as functional. For orientation: A growth-free zone around the sample is the usual read-out of agar diffusion tests.
The test system of the next test is Bacillus subtilis. Kind of test: Antibacterial activity against Bacillus subtilis by agar-diffusion test. The format is functional.

SMILES strings stand for the structures.

As for `COc1cc2cc[n+](C)c(Cc3ccc(Oc4cc(Cc5c6cc(OC)c(OC)cc6cc[n+]5C)ccc4OC)cc3)c2cc1OC` [PHAEANTHARINE], the minimum inhibitory concentration (MIC) – broadly, the lowest concentration found to suppress growth – against Staphylococcus aureus is 86 µg/mL; in the test with Bacillus subtilis, 74 µg/mL.

The record behind these values is ChEMBL document CHEMBL1151416, “Revised structure of phaeantharine” (1983).
